Measured values as given in patent publication US20210368788A1, “METHODS FOR USING ANTIMICROBIAL COMPOSITIONS” (Next Science IP Holdings Pty Ltd, priority 2016, published 2021).

Assay: Testing of lysozyme amount for efficacy (method not described)
Conditions: 0.08 g lysozyme per kg of composition

**Q.** With lysozyme as the substance, how does the “lowest amount exhibiting some efficacy” value read?
**A.** The value was 80 ppm.
